In US20230113609A1, “SSTR5 ANTAGONISTS” (Kallyope, Inc., priority 2019, published 2023):

Target: T1, human SSTR5 (Homo sapiens, UniProt P35346)
T1 construct: expressed in transfected cells
Experiment: Inositol phosphate accumulation assay (IP1 HTRF, antagonist mode)
Type: cell-based
Conditions: CHO-K1 cells co-expressing human SSTR5 with Gqi5, SST28 agonist at concentration generating 90% of full activation
Excerpt: CHO-K1 cells stably co-expressing human SSTR5 with Gqi5 were developed using Jump-In technology from Thermo-Fisher. Gqi5 is the mouse G alpha q protein, that was modified to interact with Gi-coupled GPCRs as described previously (Coward, P.; Chan, S. D.; Wada, H. G.; Humphries, G. M.; Conklin, B. R. Chimeric G proteins Allow a High-Throughput Signaling Assay of Gi-Coupled Receptors. Anal Biochem. 1999, 270(2),242-248).
Co-expression of Gqi5 with SSTR5 allowed monitoring of SSTR5 activity by following IP1 accumulation. The assay was performed in a 384-well plate format using the IP1 assay kit from Cis-Bio in an antagonist mode, i.e., pre-incubation with antagonist following by receptor activation by agonist at a concentration generating 90% of full activation. Frozen cells expressing human SSTR5 were thawed, washed, and then plated in DMEM supplemented with 10% FBS and non-essential amino acids. 40 μL of 2.5×10^5 cells/mL were plated on a Poly D-Lysine coated 384-well white plate. The cells were then incubated for 16 hr. at 37° C/5% CO2. After 16 hour the medium was removed, and 10 μL of stimulation buffer was added to the cells. Test compounds were dissolved in DMSO at concentrations 2000-fold that of the final assay concentrations. 7.5 nLcompound solutions were transferred to the cell plates using a Labcyte Echo® acoustic liquid handler. The plates were then incubated for 15 minutes at 37° C/5%CO2. After the first incubation, 5 μL of 30 nM SST28 were added to the cells, and the cells were incubated for 90 minutes at 37° C/5%CO2. 5 μL of detection buffer (prepared as described in the IP-1 kit) was added to each well, and the plates were incubated at RT for 1 hour.
TR-FRET was measured using a ClarioSTAR plate reader, calculating the ratio between emissions at 665 nm and 620 nm (HTRF ratio). The HTRF ratio for positive (Max) and negative (Min) controls were used to normalize HTRF data and generate values for % inhibition. IC50 and maximal inhibition values were determined using a standard 4-parameter fit.

T1 sequence (P35346 whole entry): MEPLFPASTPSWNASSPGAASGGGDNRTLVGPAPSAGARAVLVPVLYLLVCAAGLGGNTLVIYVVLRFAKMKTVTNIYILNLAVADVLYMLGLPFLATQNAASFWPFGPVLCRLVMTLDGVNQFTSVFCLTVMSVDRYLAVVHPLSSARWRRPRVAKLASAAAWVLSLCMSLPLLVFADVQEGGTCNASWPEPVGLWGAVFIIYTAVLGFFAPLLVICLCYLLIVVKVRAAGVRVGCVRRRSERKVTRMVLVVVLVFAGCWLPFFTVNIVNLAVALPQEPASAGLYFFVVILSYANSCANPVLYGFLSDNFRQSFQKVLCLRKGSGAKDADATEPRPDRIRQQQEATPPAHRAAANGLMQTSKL

Row | Structure (SMILES) | IC50
1 | CCOc1cc(C(=O)OC)c(C2CC2)cc1CN1CCC2(CC1)CC(=O)N(c1ccc(C(=O)NCCOCCO)cc1)C2 [Example 26, methyl 2-cyclopropyl-5-ethoxy-4-((2-(4-((2-(2-hydroxyethoxy)ethyl)carbamoyl)phenyl)-3-oxo-2,8-diazaspiro[4.5]decan-8-yl)methyl)benzoate] | 100 to 1000 nM
2 | CCOc1cc(C(=O)OC)c(C2CC2)cc1CN1CCC2(CC1)CC(=O)N(c1ccc(C(=O)NCCCO)cc1)C2 [Example 27, methyl 2-cyclopropyl-5-ethoxy-4-((2-(4-((3-hydroxypropyl)carbamoyl)phenyl)-3-oxo-2,8-diazaspiro[4.5]decan-8-yl)methyl)benzoate] | > 5000 nM
3 | CCOc1cc(C(=O)OC)c(C2CC2)cc1CN1CCC2(CC1)CC(=O)N(c1ccc(C(=O)NCCC[N+](C)(C)C)cc1)C2 [Example 28, 3-(4-(8-(5-cyclopropyl-2-ethoxy-4-(methoxycarbonyl)benzyl)-3-oxo-2,8-diazaspiro[4.5]decan-2-yl)benzamido)-N,N,N-trimethylpropan-1-aminium] | > 5000 nM
4 | CCOc1cc(C(=O)OC)c(C2CC2)cc1CN1CCC2(CC1)CC(=O)N(c1ccc(C(=O)NCCS(=O)(=O)O)cc1)C2 [Example 29, 2-(4-(8-(5-cyclopropyl-2-ethoxy-4-(methoxycarbonyl)benzyl)-3-oxo-2,8-diazaspiro[4.5]decan-2-yl)benzamido)ethane-1-sulfonic acid] | 100 to 1000 nM
5 | CCOc1cc(C(=O)OC)c(C2CC2)cc1CN1CCC2(CC1)CC(=O)N(c1ccc(C(=O)NCCCS(=O)(=O)O)cc1)C2 [Example 30, 3-(4-(8-(5-cyclopropyl-2-ethoxy-4-(methoxycarbonyl)benzyl)-3-oxo-2,8-diazaspiro[4.5]decan-2-yl)benzamido)propane-1-sulfonic acid] | > 5000 nM
6 | CCOc1cc(C(=O)OC)c(C2CC2)cc1CN1CCC2(CC1)CC(=O)N(c1ccc(C(=O)NCCCCS(=O)(=O)O)cc1)C2 [Example 31, 4-(4-(8-(5-cyclopropyl-2-ethoxy-4-(methoxycarbonyl)benzyl)-3-oxo-2,8-diazaspiro[4.5]decan-2-yl)benzamido)butane-1-sulfonic acid] | > 5000 nM
7 | CCOc1cc(C(=O)OC)c(C2CC2)cc1CN1CCC2(CC1)CC(=O)N(c1ccc(C(=O)NCCCP(=O)(O)O)cc1)C2 [Example 32, (3-(4-(8-(5-cyclopropyl-2-ethoxy-4-(methoxycarbonyl)benzyl)-3-oxo-2,8-diazaspiro[4.5]decan-2-yl)benzamido)propyl)phosphonic acid] | > 5000 nM
8 | CCOc1cc(C(=O)OC)c(C2CC2)cc1CN1CCC2(CC1)CC(=O)N(c1ccc(C(=O)NCCCP(C)(=O)O)cc1)C2 [Example 33, (3-(4-(8-(5-cyclopropyl-2-ethoxy-4-(methoxycarbonyl)benzyl)-3-oxo-2,8-diazaspiro[4.5]decan-2-yl)benzamido)propyl)(methyl)phosphinic acid] | > 5000 nM
9 | CCOc1cc(C(=O)OC)c(C2CC2)cc1CN1CCC2(CC1)CC(=O)N(c1ccc(C(=O)N(CCO)CCO)cc1)C2 [Example 34, methyl 4-((2-(4-(bis(2-hydroxyethyl)carbamoyl)phenyl)-3-oxo-2,8-diazaspiro[4.5]decan-8-yl)methyl)-2-cyclopropyl-5-ethoxybenzoate] | 1000 to 5000 nM
10 | CCOc1cc(C(=O)OC)c(C2CC2)cc1CN1CCC2(CC1)CC(=O)N(c1ccc(C(=O)NC[C@H](O)CO)cc1)C2 [Example 35, methyl (S)-2-cyclopropyl-4-((2-(4-((2,3-dihydroxypropyl)carbamoyl)phenyl)-3-oxo-2,8-diazaspiro[4.5]decan-8-yl)methyl)-5-ethoxybenzoate] | 100 to 1000 nM
11 | CCOc1cc(C(=O)OC)c(C2CC2)cc1CN1CCC2(CC1)CC(=O)N(c1ccc(C(=O)NC[C@@H](O)CO)cc1)C2 [Example 36, methyl (R)-2-cyclopropyl-4-((2-(4-((2,3-dihydroxypropyl)carbamoyl)phenyl)-3-oxo-2,8-diazaspiro[4.5]decan-8-yl)methyl)-5-ethoxybenzoate] | 100 to 1000 nM
12 | CCOc1cc(C(=O)OC)c(C2CC2)cc1CN1CCC2(CC1)CC(=O)N(c1ccc(C(=O)NC[C@H](O)[C@@H](O)[C@H](O)[C@H](O)CO)cc1)C2 [Example 37, methyl 2-cyclopropyl-5-ethoxy-4-((3-oxo-2-(4-(((2S,3R,4R,5R)-2,3,4,5,6-pentahydroxyhexyl)carbamoyl)phenyl)-2,8-diazaspiro[4.5]decan-8-yl)methyl)benzoate] | 1000 to 5000 nM
13 | CCOc1cc(C(=O)OC)c(C2CC2)cc1CN1CCC2(CC1)CC(=O)N(c1ccc(C(=O)NCCNC(N)=O)cc1)C2 [Example 38, methyl 2-cyclopropyl-5-ethoxy-4-((3-oxo-2-(4-((2-ureidoethyl)carbamoyl)phenyl)-2,8-diazaspiro[4.5]decan-8-yl)methyl)benzoate] | 100 to 1000 nM
14 | CCOc1cc(C(=O)OC)c(C2CC2)cc1CN1CCC2(CC1)CC(=O)N(c1ccc(C(=O)NCCCNC(N)=O)cc1)C2 [Example 39, methyl 2-cyclopropyl-5-ethoxy-4-((3-oxo-2-(4-((3-ureidopropyl)carbamoyl)phenyl)-2,8-diazaspiro[4.5]decan-8-yl)methyl)benzoate] | 100 to 1000 nM
15 | CCOc1cc(C(=O)OC)c(C2CC2)cc1CN1CCC2(CC1)CC(=O)N(c1ccc(C(=O)NCCN3CCNC3=O)cc1)C2 [Example 40, methyl 2-cyclopropyl-5-ethoxy-4-((3-oxo-2-(4-((2-(2-oxoimidazolidin-1-yl)ethyl)carbamoyl)phenyl)-2,8-diazaspiro[4.5]decan-8-yl)methyl)benzoate] | 100 to 1000 nM
16 | CCOc1cc(C(=O)OC)c(C2CC2)cc1CN1CCC2(CC1)CC(=O)N(c1ccc(C(=O)N(C)CCCC(=O)O)cc1)C2 [Example 41, 4-(4-(8-(5-cyclopropyl-2-ethoxy-4-(methoxycarbonyl)benzyl)-3-oxo-2,8-diazaspiro[4.5]decan-2-yl)-N-methylbenzamido)butanoic acid] | > 5000 nM
17 | CCOc1cc(C(=O)OC)c(C2CC2)cc1CN1CCC2(CC1)CC(=O)N(c1ccc(C(=O)N3CC(CO)(CO)C3)cc1)C2 [Example 42, methyl 4-((2-(4-(3,3-bis(hydroxymethyl)azetidine-1-carbonyl)phenyl)-3-oxo-2,8-diazaspiro[4.5]decan-8-yl)methyl)-2-cyclopropyl-5-ethoxybenzoate] | 1000 to 5000 nM
18 | CCOc1cc(C(=O)OC)c(C2CC2)cc1CN1CCC2(CC1)CC(=O)N(c1ccc(C(=O)N3C[C@H](O)[C@@H](O)C3)cc1)C2 [Example 43, methyl 2-cyclopropyl-4-((2-(4-((3S,4S)-3,4-dihydroxypyrrolidine-1-caibonyl)phenyl)-3-oxo-2,8-diazaspiro[4.5]decan-8-yl)methyl)-5-ethoxy benzoate] | > 5000 nM
19 | CCOc1cc(C(=O)OC)c(C2CC2)cc1CN1CCC2(CC1)CC(=O)N(c1ccc(C(=O)NCCCS(N)(=O)=O)cc1)C2 [Example 44, methyl 2-cyclopropyl-5-ethoxy-4-((3-oxo-2-(4-((3-sulfamoylpropyl)carbamoyl)phenyl)-2,8-diazaspiro[4.5]decan-8-yl)methyl)benzoate] | 100 to 1000 nM
20 | CCOc1cc(C(=O)OC)c(C2CC2)cc1CN1CCC2(CC1)CC(=O)N(c1ccc(C(=O)NCCOCC[N+]34CCN(CC3)CC4)cc1)C2 [Example 45, 1-(2-(2-(4-(8-(5-cyclopropyl-2-ethoxy-4-(methoxycarbonyl)benzyl)-3-oxo-2,8-diazaspiro[4.5]decan-2-yl)benzamido)ethoxy)ethyl)-1,4-diazabicyclo[2.2.2]octan-1-ium] | > 5000 nM
21 | CCOc1cc(C(=O)OC)c(C2CC2)cc1CN1CCC2(CC1)CC(=O)N(c1ccc(C(=O)NCCCN)cc1)C2 [Example 46, methyl 4-((2-(4-((3-aminopropyl)carbamoyl)phenyl)-3-oxo-2,8-diazaspiro[4.5]decan-8-yl)methyl)-2-cyclopropyl-5-ethoxybenzoate] | > 5000 nM
22 | CCOc1cc(C(=O)OC)c(C2CC2)cc1CN1CCC2(CC1)CC(=O)N(c1ccc(C(=O)NCCCCP(=O)(O)O)cc1)C2 [Example 47, (4-(4-(8-(5-cyclopropyl-2-ethoxy-4-(methoxycarbonyl)benzyl)-3-oxo-2,8-diazaspiro[4.5]decan-2-yl)benzamido)butyl)phosphonic acid] | 100 to 1000 nM
23 | CCOc1cc(C(=O)OC)c(C2CC2)cc1CN1CCC2(CC1)CC(=O)N(c1ccc(C(=O)NCCC(O)CO)cc1)C2 (stereo not drawn) [Example 48, methyl 2-cyclopropyl-4-((2-(4-((3,4-dihydroxybutyl)carbamoyl)phenyl)-3-oxo-2,8-diazaspiro[4.5]decan-8-yl)methyl)-5-ethoxybenzoate] | 100 to 1000 nM
24 | CCOc1cc(C(=O)OC)c(C2CC2)cc1CN1CCC2(CC1)CC(=O)N(c1ccc(C(=O)NCCOCCOCCO)cc1)C2 [Example 49, methyl 2-cyclopropyl-5-ethoxy-4-((2-(4-((2-(2-(2-hydroxyethoxy)ethoxy)ethyl)carbamoyl)phenyl)-3-oxo-2,8-diazaspiro[4.5]decan-8-yl)methyl)benzoate] | 100 to 1000 nM
